The source made the active and inactive calls. The rule behind the calls is not given here.

For assay [1], the target named is T1, Nuclear factor erythroid 2-related factor 2 (Homo sapiens) (UniProt Q16236).
T1 sequence (whole entry): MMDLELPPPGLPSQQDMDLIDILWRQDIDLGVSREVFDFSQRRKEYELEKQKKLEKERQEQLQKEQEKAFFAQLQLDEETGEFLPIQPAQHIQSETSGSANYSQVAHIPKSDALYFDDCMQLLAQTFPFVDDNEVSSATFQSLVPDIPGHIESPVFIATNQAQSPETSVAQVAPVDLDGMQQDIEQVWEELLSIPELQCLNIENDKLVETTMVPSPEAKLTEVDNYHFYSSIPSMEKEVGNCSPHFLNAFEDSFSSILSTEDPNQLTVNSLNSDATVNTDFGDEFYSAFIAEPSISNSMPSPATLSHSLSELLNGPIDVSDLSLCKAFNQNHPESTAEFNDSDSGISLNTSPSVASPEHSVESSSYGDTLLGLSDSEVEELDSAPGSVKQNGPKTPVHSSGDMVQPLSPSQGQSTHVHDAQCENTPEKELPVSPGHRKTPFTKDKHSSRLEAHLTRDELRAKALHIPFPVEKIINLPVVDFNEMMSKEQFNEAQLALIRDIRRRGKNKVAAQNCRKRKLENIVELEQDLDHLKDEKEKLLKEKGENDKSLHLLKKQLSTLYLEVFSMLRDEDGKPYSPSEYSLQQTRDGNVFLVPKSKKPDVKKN
The assay is described as follows: Activation of Nrf2 in human L02 cells assessed as increase in NQO-1 mRNA expression at 10 uM measured after 8 to 24 hrs by trizol reagent based qRT-PCR analysis. It is filed as cell-based.

The subject of assay [2] is Mus musculus. The assay is described as follows: Protection against APAP-induced hepatotoxicity in C57BL/6 mouse assessed as increase in GSH/GSSG ratio in liver at 10 to 40 mg/kg, ip treated 2 hrs prior to 22 hrs starvation followed by APAP challenge and measured after 6 hrs. It is filed as functional, organism-based.
In assay [3] the target is T1, Nuclear factor erythroid 2-related factor 2 (Homo sapiens). The assay is described as follows: Activation of Nrf2 in human L02 cells assessed as increase in GCLM expression at 10 uM measured after 4 to 72 hrs hrs by Western blot analysis. It is filed as cell-based.
Assay [4] shares this target. The assay is described as follows: Activation of Nrf2 in human L02 cells assessed as increase in GCLM mRNA expression at 10 uM measured after 8 to 24 hrs by trizol reagent based qRT-PCR analysis. It is filed as cell-based.
Assay [5] has as its system L02. The assay is described as follows: Upregulation of NEFL2L expression in human L02 cells harboring Nrf2 siRNA at 10 uM measured after 10 hrs by Western blot analysis. It is filed as functional, cell-based.
Assay [6] concerns the target T1, Nuclear factor erythroid 2-related factor 2 (Homo sapiens). The assay is described as follows: Activation of Nrf2 in human L02 cells assessed as increase in NEFL2L mRNA expression at 10 uM measured after 8 to 24 hrs by trizol reagent based qRT-PCR analysis. It is filed as cell-based.
The test system of assay [7] is L02. The assay is described as follows: Upregulation of GCLM mRNA expression in human L02 cells harboring Nrf2 siRNA at 10 uM measured after 10 hrs by trizol reagent based qRT-PCR analysis. It is filed as functional, cell-based.
Assay [8] concerns L02. The assay is described as follows: Upregulation of NQO-1 expression in human L02 cells harboring Nrf2 siRNA at 10 uM measured after 10 hrs by Western blot analysis. It is filed as functional, cell-based.
In assay [9] the target is T1, Nuclear factor erythroid 2-related factor 2 (Homo sapiens). The assay is described as follows: Activation of Nrf2 in human L02 cells harboring control siRNA assessed as increase in NEFL2L expression at 10 uM measured after 10 hrs by Western blot analysis. It is filed as cell-based.
The target is the same in assay [10]. The assay is described as follows: Activation of Nrf2 in human L02 cells harboring control siRNA assessed as increase in NQO-1 expression at 10 uM measured after 10 hrs by Western blot analysis. It is filed as cell-based.
For assay [11] the target is unchanged. The assay is described as follows: Activation of Nrf2 in human L02 cells assessed as increase in HO-1 mRNA expression at 10 uM measured after 8 to 24 hrs by trizol reagent based qRT-PCR analysis. It is filed as cell-based.
Assay [12] deals with Mus musculus. The assay is described as follows: Protection against APAP-induced hepatotoxicity in C57BL/6 mouse assessed as decrease in liver lymphocytes infiltration at 10 to 40 mg/kg, ip treated 2 hrs prior to 22 hrs starvation followed by APAP challenge and measured after 6 hrs by H and E staining-based light microscopic analysis. It is filed as functional, organism-based.

With `COc1ccc(S(=O)(=O)N(CC(=O)O)c2ccc(N3CCC[C@H]3C(=O)O)c3ccccc23)cc1`, the result in [1], in [2], in assay [3], in assay [4], in [6] and in [9] was Active. Moreover, the result in assay [10], in [11] and in [12] was Active. In addition, the result in assay [5], in assay [7] and in [8] was inactive.

The values above are taken from ChEMBL document CHEMBL4364299, “Discovery of a Potent Kelch-Like ECH-Associated Protein 1-Nuclear Factor Erythroid 2-Related Factor 2 (Keap1-Nrf2) Protein-Protein Interaction Inhibitor with Natural Proline Structure as a Cytoprotective Agent against Acetaminophen-Induced Hepatotoxicity” (J Med Chem, 2019).
